System: DRD2-expressing 293T cells vs untransduced 293T cells
Experiment: Flow cytometry quantification of probe labeling of cells
Type: cell-based, human
Conditions: probe 100 nm, photo-cross-linked, Alexa Fluor 555 azide; P < 0.0001, two-way ANOVA
Method: Flow cytometry was used to quantify the number of cells that were successfully labeled by probes 5 and 7 as these were the most promising biochemically and seemed to display the highest propensity for labeling DRD2-expressing cells. To perform the quantification, our 293T cell line-expressing DRD2 or unmodified 293T cells as a negative control were treated with probes at a 100 nm concentration, the lower concentration than the EC50 determination, likely due in large part to the covalent nature of the binding event versus the noncovalent EC50 assays. The probes were covalently cross-linked to the cells with UV, and the unbound probe was washed out. The azide-containing fluorescent dye was then clicked onto the probe, the unbound dye was washed out, and the cells were analyzed by flow cytometry (Figure 5a). […]
Figure 5 Flow cytometry quantification of probe labeling. […] The cells were then analyzed by flow cytometry. P values determined using two-way ANOVA in GraphPad; **** corresponds to P < 0.0001. […]
HEK293T cells and a stable HEK293T-derived cell line-expressing DRD2-Strep Tag II fusion were maintained in DMEM supplemented with 10% FBS, 100 U/mL penicillin, and 100 μg/mL streptomycin in a humidified atmosphere at 37 °C in 5% CO2. […] The cells were then washed 3 times with PBS with 5% BSA and analyzed with a BD Accuri C6 flow cytometer. […]

SMILES | labeling of cells expressing DRD2 vs cells that do not (flow cytometry)
C#CCOc1ccc(C(=O)c2ccc(CN[C@H]3CCc4nc(N)sc4C3)cc2)cc1 [Compound 7, (S)-(4-(((2-Amino-4,5,6,7-tetrahydrobenzo[d]thiazol-6-yl)amino)methyl)phenyl)(4-(prop-2-yn-1-yloxy)phenyl)methanone] | highly statistically significant increase in the labeling of cells expressing DRD2 over those that do not
C#CCOc1ccc(C(=O)c2ccc(CNCCc3cccc4c3CC(=O)N4)cc2)cc1 [Compound 5, 4-(2-((4-(4-(Prop-2-yn-1-yloxy)benzoyl)benzyl)amino)ethyl)indolin-2-one] | highly statistically significant increase in the labeling of cells expressing DRD2 over those that do not

Reference: PMC9585581, “Developing Photoaffinity Probes for Dopamine Receptor D2 to Determine Targets of Parkinson’s Disease Drugs” (ACS Chemical Neuroscience, 2022)
